From ChEMBL document CHEMBL3297661, “1-Substituted-5-[(3,5-dinitrobenzyl)sulfanyl]-1H-tetrazoles and their isosteric analogs: A new class of selective antitubercular agents active against drug-susceptible and multidrug-resistant mycobacteria” (Eur J Med Chem, 2014)
Values after ≈ are worked out from the molar mass of the structure shown.

Legend:
[1] = test system: Trichosporon asahii; assay: Antifungal activity against Trichosporon asahii 1188 after 24 hrs by broth microdilution method; type: functional; details: Trichosporon asahii, 1188, 24 h
[2] = test system: Candida albicans; assay: Antifungal activity against Candida albicans ATCC 44859 after 24 hrs by broth microdilution method; type: functional; details: ATCC 44859, 24 h
[3] = test system: Aspergillus fumigatus; assay: Antifungal activity against Aspergillus fumigatus 231 after 24 hrs by broth microdilution method; type: functional, organism-based; details: Aspergillus fumigatus, 231, 24 h
[4] = test system: Trichophyton mentagrophytes; assay: Antifungal activity against Trichophyton mentagrophytes 445 after 72 hrs by broth microdilution method; type: functional, organism-based; details: Trichophyton mentagrophytes, 445, 72 h
[5] = test system: Pichia kudriavzevii; assay: Antifungal activity against Candida krusei E28 after 24 hrs by broth microdilution method; type: functional; details: E28, 24 h
[6] = test system: Nakaseomyces glabratus; assay: Antifungal activity against Candida glabrata 20/I after 24 hrs by broth microdilution method; type: functional
[7] = test system: Candida tropicalis; assay: Antifungal activity against Candida tropicalis 156 after 24 hrs by broth microdilution method; type: functional; details: Candida tropicalis, 156, 24 h
[8] = test system: Lichtheimia corymbifera; assay: Antifungal activity against Absidia corymbifera 272 after 24 hrs by broth microdilution method; type: functional, organism-based; details: Lichtheimia corymbifera, 272, 24 h
[9] = Cytotoxicity against human HuH7 cells assessed as reduction in cell viability after 48 hrs by MTT assay; type: cell-based; details: Huh-7, 48 h
[10] = test system: Mycobacterium avium; assay: Antimycobacterial activity against Mycobacterium avium CNCTC My 330/88 after 21 days by micromethod; type: functional; details: CNCTC My 330/88, 504 h
[11] = Cytotoxicity against MDCK2 cells assessed as cell viability at 30 uM after 48 hrs by MTT assay; type: cell-based, Canis lupus familiaris, MDCK-II; details: dog, read-out: Activity
[12] = test system: Mycobacterium kansasii; assay: Antimycobacterial activity against Mycobacterium kansasii 6509/96 after 21 days by micromethod; type: functional; details: 6509/96, 504 h
[13] = test system: Mycobacterium kansasii; assay: Antimycobacterial activity against Mycobacterium kansasii CNCTC My 235/80 after 14 days by micromethod; type: functional; details: CNCTC My 235/80, 336 h
[14] = test system: Mycobacterium avium; assay: Antimycobacterial activity against Mycobacterium avium CNCTC My 330/88 after 14 days by micromethod; type: functional; details: CNCTC My 330/88, 336 h
[15] = Cytotoxicity against human HepG2 cells assessed as cell viability at 30 uM after 48 hrs by MTT assay; type: cell-based; details: read-out: Activity
[16] = test system: Mycobacterium kansasii; assay: Antimycobacterial activity against Mycobacterium kansasii 6509/96 after 7 days by micromethod; type: functional; details: 6509/96, 168 h
[17] = test system: Mycobacterium tuberculosis; assay: Antimycobacterial activity against Mycobacterium tuberculosis CNCTC My 331/88 after 14 days by micromethod; type: functional; details: CNCTC My 331/88, 336 h
[18] = test system: HeLa; assay: Cytotoxicity against human HeLa cells assessed as reduction in cell viability after 48 hrs by MTT assay; type: cell-based
[19] = Cytotoxicity against MDCK2 cells assessed as reduction in cell viability after 48 hrs by MTT assay; type: cell-based; details: Canis lupus familiaris, MDCK-II
[20] = Cytotoxicity against human HeLa cells assessed as cell viability at 30 uM after 48 hrs by MTT assay; type: cell-based; details: read-out: Activity
[21] = test system: HepG2; assay: Cytotoxicity against human HepG2 cells assessed as reduction in cell viability after 48 hrs by MTT assay; type: cell-based; details: HepG2, 48 h
[22] = test system: Mycobacterium kansasii; assay: Antimycobacterial activity against Mycobacterium kansasii CNCTC My 235/80 after 7 days by micromethod; type: functional; details: CNCTC My 235/80, 168 h
[23] = test system: Mycobacterium tuberculosis; assay: Antimycobacterial activity against Mycobacterium tuberculosis CNCTC My 331/88 after 21 days by micromethod; type: functional; details: CNCTC My 331/88, 504 h
[24] = Cytotoxicity against human HuH7 cells assessed as cell viability at 30 uM after 48 hrs by MTT assay; type: cell-based, Huh-7; details: read-out: Activity
[25] = test system: Mycobacterium kansasii; assay: Antimycobacterial activity against Mycobacterium kansasii CNCTC My 235/80 after 21 days by micromethod; type: functional; details: CNCTC My 235/80, 504 h
[26] = test system: Mycobacterium kansasii; assay: Antimycobacterial activity against Mycobacterium kansasii 6509/96 after 14 days by micromethod; type: functional; details: 6509/96, 336 h
[27] = test system: Staphylococcus aureus; assay: Antibacterial activity against Staphylococcus aureus ATCC 6538 after 24 hrs by broth microdilution method; type: functional; details: ATCC 6538, 24 h
[28] = test system: Staphylococcus epidermidis; assay: Antibacterial activity against Staphylococcus epidermidis H 6966/08 after 24 hrs by broth microdilution method; type: functional; details: H 6966/08, 24 h
[29] = test system: Staphylococcus aureus; assay: Antibacterial activity against methicillin-resistant Staphylococcus aureus H 5996/08 after 24 hrs by broth microdilution method; type: functional; details: H 5996/08, 24 h
[30] = test system: Enterococcus faecalis; assay: Antibacterial activity against Enterococcus faecalis J 14365/08 after 24 hrs by broth microdilution method; type: functional; details: J 14365/08, 24 h

| Compound | IC50 [9] [nM] | MIC [10] [µM] | viability at 48 h, 30 µM [11] [%] | MIC [12] [µM] | MIC [13] [µM] | MIC [14] [µM] | viability at 48 h, 30 µM [15] [%] | MIC [16] [µM] | MIC [17] [µM] | IC50 [18] [nM] | IC50 [19] [nM] | viability at 48 h, 30 µM [20] [%] | IC50 [21] [nM] | MIC [22] [µM] | MIC [23] [µM] | viability at 48 h, 30 µM [24] [%] | MIC [25] [µM] | MIC [26] [µM] | other results |
| --- | --- | --- | --- | --- | --- | --- | --- | --- | --- | --- | --- | --- | --- | --- | --- | --- | --- | --- | --- |
| C[C@@H]1[C@H](O)[C@@H](C)/C=C/C=C/C=C/C=C/C=C/C=C/C=C/[C@H](O[C@@H]2O[C@H](C)[C@@H](O)[C@H](N)[C@@H]2O)C[C@@H]2O[C@](O)(C[C@@H](O)C[C@@H](O)[C@H](O)CC[C@@H](O)C[C@@H](O)CC(=O)O[C@H]1C)C[C@H](O)[C@H]2C(=O)O [AMPHOTERICIN B] | – | – | – | – | – | – | – | – | – | – | – | – | – | – | – | – | – | – | IC80 [1]: 270 nM; IC80 [2]: 540 nM; IC50 [3]: 540 nM; IC50 [4]: 540 nM; IC80 [5]: 1000 nM; IC80 [6]: 540 nM; IC80 [7]: 540 nM; IC50 [8]: 1000 nM |
| O=[N+]([O-])c1cc(C[S+]([O-])c2nnnn2C2CCCCC2)cc([N+](=O)[O-])c1 (stereo not drawn) | > 30000 | 125 (≈ 47.5 µg/mL) | 52 | 32 (≈ 12.2 µg/mL) | 16 (≈ 6.09 µg/mL) | 125 (≈ 47.5 µg/mL) | 42 | 4 (≈ 1.52 µg/mL) | 8 (≈ 3.04 µg/mL) | > 30000 | > 30000 | 62 | 23000 | 4 (≈ 1.52 µg/mL) | 16 (≈ 6.09 µg/mL) | 84 | 62 (≈ 23.6 µg/mL) | 16 (≈ 6.09 µg/mL) | – |
| O=[N+]([O-])c1cc(CS(=O)(=O)c2nnnn2C2CCCCC2)cc([N+](=O)[O-])c1 | 28000 | 62 (≈ 24.6 µg/mL) | 18 | 16 (≈ 6.34 µg/mL) | 16 (≈ 6.34 µg/mL) | 32 (≈ 12.7 µg/mL) | 10 | 8 (≈ 3.17 µg/mL) | 2 (≈ 0.793 µg/mL) | 21000 | < 7500 | 22 | 9000 | 8 (≈ 3.17 µg/mL) | 4 (≈ 1.59 µg/mL) | 43 | 16 (≈ 6.34 µg/mL) | 16 (≈ 6.34 µg/mL) | – |
| CN[C@H](CC(C)C)C(=O)N[C@H]1C(=O)N[C@@H](CC(N)=O)C(=O)N[C@H]2C(=O)N[C@H]3C(=O)N[C@H](C(=O)N[C@H](C(=O)O)c4cc(O)cc(O)c4-c4cc3ccc4O)[C@H](O)c3ccc(c(Cl)c3)Oc3cc2cc(c3O[C@@H]2O[C@H](CO)[C@@H](O)[C@H](O)[C@H]2O[C@H]2C[C@](C)(N)[C@H](O)[C@H](C)O2)Oc2ccc(cc2Cl)[C@H]1O [VANCOMYCIN] | – | – | – | – | – | – | – | – | – | – | – | – | – | – | – | – | – | – | IC95 [27]: 350 nM; IC95 [28]: 350 nM; IC95 [29]: 350 nM; IC95 [30]: 700 nM |
